Assay [1] deals with THP-1 monocytes. The assay can be described thus: Growth inhibition of THP-1 monocytes. The class given is cell-based, human. On the procedure:
(§1) Cell Culture: Tocopherol and the TP/T2P mixture were each dissolved in ethanol, and the concentrations of the stock solutions were confirmed spectrophotometrically. Monocytes (THP-1) were grown in RPMI/10% FCS.
Growth inhibition by TP/T2P mixture of THP-1 Monocytes: Monocyte proliferation is an important event in the onset and progression of atherosclerosis.

Assay [2] concerns THP-1 monocytes. Put plainly: Uptake of oxLDL-DiO by FACS. The class given is cell-based, human. How it is done: Labeling oxLDL. OxLDLs (90% to 100% oxidation) were purchased from Intracell Corp. Small amounts of LDL were oxidized with CuSO4 ([…]) at 37° C. for 18 to 22 hours. LDL oxidation was confirmed by the formation of a characteristic smear band on an agarose gel. Labeling of oxLDL was done basically as previously described. OxLDLs were incubated at 37° C. with DiO (Molecular Probes) in lipoprotein-deficient serum (Sigma) for 15 hours. The labeled oxLDLs (oxLDL-DiO) were purified by ultracentrifugation over a KBr gradient and dialyzed against several changes of saline-EDTA ([…] NaCl-0.01% EDTA) for 6 hours.
Uptake of oxLDL: Uptake of oxLDL was studied with fluorescence-activated cell sorting (FACS). For FACS, the cells were pretreated for 16 hours with 50 μM tocopherol, tocopheryl phosphates, or ethanol solvent (control) and then incubated with oxLDL-DiO (5 μg/mL medium) for 6 hours. For competition experiments, the cells were incubated with monoclonal anti-CD36 antibody (60 μg/5 mL DMEM) (Ancell), with an unspecific isotype-matched antibody (mouse IgM, Ancell), or with unlabeled oxLDL (100 μg/5 mL DMEM) (Intracell Corp). Thereafter, the cells were washed 3 times with PBS and twice with PBS-3 mg/mL BSA and then were detached with trypsin (0.25% trypsin, 0.03% EDTA). […] Data were calculated by subtracting the cell autofluorescence from the fluorescence of the treated samples.

Assay [3] deals with CD36 scavenger receptor. Put plainly: Surface expression of CD36 scavenger receptor, FACS with antiCD36-FITC. Type of assay: cell-based, human. As to conditions: THP-1 monocytes, control cells treated with tocopherol. On the procedure: as §1
FIG. 6 represents the change in cell numbers over time as indicated by the number of cells which have taken up the fluorescent antibody.

For assay [4], the system named is Rat Aortic Smooth Muscle Cells (RASMC). Put plainly: Smooth muscle cell proliferation - cell counts (Example 1). Type of assay: cell-based. As to conditions: for Inhibition of cellular proliferation (in words): cell counts after 72 h, tested 0.25-100 μM. From the text: The Rat Aortic Smooth Muscle Cells (RASMC) used in proliferative studies are derived from the tunica intima and tunica media of healthy, fibrous plaque-free adult rat aorta. This cell line is an accepted model for the study of atherosclerosis, since increased arterial smooth muscle mass are found in the intima lesion of atherosclerosis. RASMC are cryopreserved at second passage and can be propagated at least 16 population doublings. RASMC respond to various factors by cell proliferation and hypertrophy, which are prominent indicators of atherosclerosis in vascular disease. RASMC are well suited for the study of large vessel smooth muscle cell growth and differentiation and serve as an in vitro model in correlation with live rat models.
Rat Aortic Smooth Muscle Cells (RASMC) were seeded in growth medium (basal medium+10% FBS) into 6 well plates (50,000 cells/well). After 24 h, cells were washed twice with Hanks Buffered Salt Solution and serum depleted media (basal medium+0.2% FBS) was added to each well. Cells were serum starved for 48 h. Treatments were then prepared in growth medium and added to each well (3 ml/well). Each treatment was conducted in triplicate. The effect of tocopherol and tocopherol phosphate on smooth muscle cell proliferation was tested at eight concentrations: 0.25, 0.5, 1, 5, 10, 20, 50 and 100 μM. Control treatments included: growth medium and growth medium+vehicle (EtOH, 1/1000). After a 72 h incubation period at 37° C., 5% CO2, cells were counted.
Cell proliferation was assessed and quantified by cell counting. Cells were counted after 48 h starvation in basal medium supplemented with 0.2% serum before the addition of test compounds. The average cell count of triplicate wells was ˜60,000. This number exceeds the number of cells seeded prior to starvation (50,000). Therefore the cells were determined to be viable and treatments were added to each well as described previously.

Assay [5] has the same test system. The assay can be described thus: MTS proliferation assay (Example 2, Study 2). Type of assay: cell-based. The settings on record: 100 μM, vs vehicle control. How it is done:
The MTS proliferation assay was conducted to further support and compliment the adhered cell counts assay. The MTS assay is a well established method for the assessment of cellular proliferation which takes into account the viable cells that are adhered to the plate (as in adhered cell counts) and those that may become detached and float in the media during the course of the experiment (which would be missed in adhered cell counts).

Assay [6] has the same test system. The assay can be described thus: Counting adhered cells (Example 2, Study 1). Type of assay: cell-based. As to conditions: adhered cell counts, 0-100 μM, vs vehicle control. How it is done: This example assesses the anti-proliferative activity of α-tocopheryl phosphate (TP), di-tocopheryl phosphate (T2P), the TP/T2P mixture and α-tocopherol using two types of cell counting assays: adhered cell counts and MTS assay.
In this study cells remaining on the bottom of the plate were counted and anti-proliferative activity was assessed based on the number of viable cells that remained adhered to the plate.

On to `Cc1c(C)c2c(c(C)c1O)CC[C@@](C)(CCC[C@H](C)CCC[C@H](C)CCCC(C)C)O2` [tocopherol, α-tocopherol], for which the “Inhibition of monocyte proliferation (in words)” value in assay [1] (THP-1, TP/T2P at 30 μM (TP1) and 60 μM (TP2), especially after 48 h, relative to ethanol control) was “not able to inhibit”. Moreover, the “Inhibition of proliferation of human monocyte cells” value in assay [1] (THP-1 monocytes) is reported as “no inhibition”. The “Concentration giving the same inhibition of oxLDL uptake (as 50 μM tocopherol, 33% reduction)” value in assay [2] is 50 µM. In assay [2] (50 μM, 16 h pretreatment, 6 h oxLDL-DiO), the “Reduction of OxLDL-DiO uptake signal (median of the peak)” value is 33%. Also, in assay [3], the “CD36 expression (in words)” value was “expressed large amounts of CD36 receptors”. The “Optimum inhibition of proliferation (plateau)” value in assay [4] (72 h, higher doses) is on record as “around 60%”. The figures for the “Inhibition of cellular proliferation (in words)” value in assay [4] (listed as Tocopherol) and in assay [4] (listed as α-tocopherol) were “inhibited only to some degree” and “partially inhibited”, respectively.
For α-tocopheryl phosphate [TP], the “Inhibition of smooth muscle cell proliferation” value in assay [5] is recorded as “up to 85%”. Further, the “Maximum inhibition of smooth muscle cell proliferation” value in assay [6] is reported as “did not inhibit”.

Values taken from patent publication US20110003774A1, “COMPOUNDS HAVING ANTI-PROLIFERATIVE PROPERTIES” (VITAL HEALTH SCIENCES PTY. LTD., priority 2003, published 2011).
